From publication PMC6396024, “Artemin and an Artemin-Derived Peptide, Artefin, Induce Neuronal Survival, and Differentiation Through Ret and NCAM” (Frontiers in Molecular Neuroscience, 2019) come the findings set out here.

Bridge positions count the residues as written; N and C are the ends. Ends that are not written are not given here. I, II: the chains in the order shown.

In assay [1] the test system is cerebellar granule neurons (CGNs). The assay is described as follows: Survival assay of CGNs induced to undergo apoptosis by potassium withdrawal. The class given is cell-based, Wistar rat. The note with it: for neuronal survival in apoptotic medium: 48 h, 5 mM KCl, serially diluted ARTN or artefin, paired t-test; for maximal neuroprotective effect / maximum level of neuronal survival: control 40 mM KCl = 100%, mean of five experiments. The protocol:
(§1) Cerebellar granule neurons (CGNs) were prepared from 7-day-old Wistar rat pups (Charles River Laboratories, Sulzfeld, Germany) as previously described ([Schousboe et al., 1989]). Briefly, pups were decapitated, and the cerebellum was removed and cleared from blood vessels and meninges in ice-cold modified Krebs-Ringer buffer. The cerebellum was dissociated by chopping and trypsinization. Cells were washed in Krebs-Ringer buffer containing DNAse I (Sigma, St. Louis, MO, United States) and soybean trypsin inhibitor (Sigma) to stop trypsinization, and the remaining tissue pieces were pelleted by centrifugation. Cells were then washed in Krebs-Ringer buffer containing Ca^2+ and Mg^2+ and re-suspended in appropriate Neurobasal^TM medium (Invitrogen, Taastrup, Denmark) with supplements depending on the experiment.
Cerebellar granule neurons were re-suspended in Neurobasal^TM-A medium supplemented with 2% (v/v) B27 (Invitrogen, Taastrup, Denmark), 0.5% (v/v) glutamax, 100 U/ml penicillin, 100 μg/ml streptomycin, and 40 mM KCl, and seeded at a density of 1 × 10^5 cells/well in 8-well LabTek Permanox chamber slides (Nunc, Roskilde, Denmark) coated with poly-L-lysine (10 μg/ml). To avoid proliferation of non-neuronal cells, cytosine-β-D-arabinofuranoside (Sigma) was added to cells 24 h after plating. CGNs were allowed to differentiate for 7 days in vitro (DIV) in the presence of 40 mM KCl before being induced to undergo apoptosis by changing the medium to one containing only 5 mM KCl (apoptotic medium) ([D’Mello et al., 1993]). At 7 DIV, cells were washed and stimulated with serially diluted ARTN or artefin diluted in the apoptotic medium. Three different controls were included; (1) cells grown in medium containing 40 mM KCl served as a positive control; (2) cells grown in medium containing 5 mM KCl served as a negative control; (3) cells grown in medium containing 5 mM KCl supplemented with 50 ng/ml insulin growth factor-1 (IGF-1) (Life Technology), a known anti-apoptotic factor for CGNs in this setup ([Galli et al., 1995]). After 48 h following the induction of apoptosis, cells were fixated in 4% formaldehyde for 30 min, and nuclear morphology was visualized with Hoechst 33258 staining (Invitrogen, Taastrup, Denmark) (Figure 2A). Images of cells were obtained using a Nikon Diaphot 200 fluorescent microscope equipped with a Nikon Plan 40× objective (Nikon, Tokyo, Japan) and coupled to a black-white video camera. Images of at least 1000 cells/well in different fields of view were analyzed, and the percentage of viable neurons was estimated as the ratio of live cells (non-pyknotic cells with dispersed chromatin) to the total number of neurons.
FIGURE 2 Effect of ARTN and artefin on survival of cerebellar granular neurons (CGNs) induced to undergo apoptosis. CGNs were differentiated for 7 days in the presence of 40 mM KCl before apoptosis was induced by potassium withdrawal. (A) Nuclear morphology of CGNs after Hoechst 33258 staining. […] Scale bar: 100 μm. Cells were grown for 48 h in media, containing 40 mM KCl, apoptotic medium (5 mM KCl) or apoptotic medium supplemented with 50 ng/ml IGF-1 (positive control) (B), serially diluted ARTN (C), or artefin (D). Each experiment was performed in the presence of the three controls (40 mM KCl, 5 mM KCl, and 5 mM KCl plus IGF-1), and the survival effect of the growth factor and the peptide was compared to its own apoptotic control (5 mM KCl). Results from the five experiments are expressed as percentage of 40 mM KCl control set at 100% and presented as mean ± SEM. The anti-apoptotic effect of ARTN and artefin was tested using Student’s paired t-test, where ^∗p < 0.05; ^∗∗p < 0.01; ^∗∗∗p < 0.001; ^∗∗∗∗p < 0.0001.

Assay [2] concerns RET; cerebellar granule neurons (CGNs). The assay can be described thus: Neurite outgrowth in CGNs with anti-RET antibody. The assay is classed as cell-based, Wistar rat. The note with it: for neurite outgrowth without antibody: ARTN 0.042 nM or artefin 0.47 μM, versus control; for neurite outgrowth with anti-RET antibody / neurite outgrowth with control IgG: 1 h before ARTN 0.042 nM or artefin 0.47 μM; for neurite outgrowth with control IgG: control IgG 4.1 μg/ml. The protocol: as §1
Cerebellar granule neurons CGNs were re-suspended in Neurobasal^TM medium supplemented with 2% (v/v) B27, 0.5% (v/v) glutamax, 100 U/ml penicillin, 100 μg/ml streptomycin, 0.4% (w/v) BSA, and 20 mM HEPES and were seeded in 8-well LabTek Permanox chamber slides (Nunc) at a density of 1 × 10^4 cells/cm^2. Various concentrations of ARTN, artefin, scrambled artefin, or reversed artefin were added to neurons immediately after seeding. For the RET inhibition assay, the inhibitory goat anti-mouse RET antibody (4.1 μg/ml; R&D systems, Abingdon, United Kingdom) or control goat IgG (4.1 μg/ml; Santa Cruz Biotechnology, Dallas, TX, United States) were added to neurons 1 h before stimulation with ARTN (0.042 nM) […]. For the competition assay between growth factor and mimetic peptide, a combination of ARTN (2.1 nM) and artefin (4.2 μM) was added to the cells immediately after seeding. To inhibit Fibroblast growth factor receptor (FGFR) pharmacologically, inhibitor of FGFR, SU5402 (Sigma), was added to the growth medium in serial dilutions of 20, 40, and 80 μM immediately after plating of CGNs, followed by addition of either P2-d (8 μg/ml), ARTN (0.21 nM), or artefin (1.4 μM) 1 h after the plating.
To estimate neurite outgrowth, neurons were fixated 24 h after stimulation and stained with rabbit anti-growth-associated-protein-43 (GAP-43) antibody (Chemicon International, Inc., Temecula, CA, United States) or anti-GFP antibody (for transfection experiment) overnight at 4°C followed by incubation with secondary Alexa-conjugated goat anti-rabbit antibodies (Invitrogen, Taastrup, Denmark). In case of experiments with plasmid transfection, the transfection efficiency was ca. 20% of total cells and the neurite outgrowth was evaluated only in GFP-positive, i.e., transfected, cells. For representative pictures, cells were additionally co-stained with Hoechst 33258.
Computer-assisted fluorescent microscopy was performed using a Nikon Diaphot 300 inverted microscope (Nikon) equipped with a Nikon Plan 20× objective and coupled to a video camera (Grundig Electronics, Germany). For each condition in each experiment, including the experiment with transfections, images of approximately 200 cells were recorded in systematic series of fields of view, and neurite outgrowth was quantified using a stereological approach as previously described ([Rønn et al., 2000]).
FIGURE 6 Inhibition of ARTN-induced (A) and artefin-induced (B) neurite outgrowth in CGNs by anti-RET antibody. CGNs were pre-treated directly after plating for 1 h with anti-RET antibody or control IgG in concentrations 4.1 μg/ml before stimulating with ARTN (0.042 nM) or artefin (0.47 μM).

The mark [3] stands for this setting: 48 h in apoptotic medium (5 mM KCl).

With “I: RSPHDLSLASLLGAGKK-NH2 / II: RSPHDLSLASLLGAGK / III: RSPHDLSLASLLGAG / IV: RSPHDLSLASLLGAG (amide I:16-IV:C, I:17-II:C, II:16-III:C; C-terminus assumed) [artefin]”, the “neuronal survival in apoptotic medium” value in assay [1] is recorded as “significantly promoted neuronal survival”. Besides, in assay [1] (setting [3]), the “concentration of maximum neuronal survival” value amounted to 0.156 µM and the “maximal neuroprotective effect / maximum level of neuronal survival” value is listed as 72.95 % of control. Also, in assay [2], the “neurite outgrowth without antibody” value is on record as “significantly increased when compared to the control (p < 0.01)” and the “neurite outgrowth with control IgG” value is given as “did not significantly alter the neuritogenic effect of artefin”. The “neurite outgrowth with anti-RET antibody” value in assay [2] (anti-RET antibody 4.1 μg/ml) was “statistically significant reduction of artefin-induced neurite outgrowth (p < 0.01 versus artefin alone)”. For the same molecule, the “neurite outgrowth with anti-RET antibody versus unstimulated control” value in assay [2] (anti-RET antibody 4.1 μg/ml, artefin 0.47 μM, p < 0.01) is on record as “still significantly different from unstimulated control”.

B1: recombinant human Artemin (ARTN) (ligand, UniProt Q5T4W7 108-220, looked up)
chain: AGGPGSRARAAGARGCRLRSQLVPVRALGLGHRSDELVRFRFCSGSCRRARSPHDLSLASLLGAGALRPPPGSRPVSQPCCRPTRYEAVSFMDVNSTWRTVDRLSATACGCLG
notes: Artemin (ARTN), human, UniProt D3DPX9; source: bought: R&D Systems
For B1, the “neuronal survival in apoptotic medium” value in assay [1] is listed as “promoted the survival of CGNs in culture in a dose-dependent manner”. In assay [1] (setting [3]), the “concentration of maximal neuroprotective effect” value turned out to be 4 pM and the “maximal neuroprotective effect / maximum level of neuronal survival” value is given as 68.3 % of control. In addition, in assay [2], the “neurite outgrowth without antibody” value is recorded as “significantly higher level of neurite outgrowth than control cultures” and the “neurite outgrowth with control IgG” value is given as “did not affect the ARTN-induced neurite outgrowth”. In addition, the “neurite outgrowth with anti-RET antibody” value in assay [2] (anti-RET antibody 4.1 μg/ml) is given as “completely abolished the neurite elongation effect of ARTN”.
